One may read the IC50 as the concentration that inhibits the measured activity by half.

The structures appear in SMILES notation. Calls of active or inactive are those of the source. How the calls were made is not given here.

In the test the test system is human cells, XBP1 mRNA qRT-PCR. Put plainly: compound effect on XBP1 transcript levels – cell-based, quantitative RT-PCR, medium throughput (AID 652064).
As to `Cc1cc(C2=NNC(=NC3CC3)SC2)c(C)n1-c1ccccc1`, the IC50 is 4.78 µM (inactive).

In the case of `CCOc1ccc(-c2nc(CSCC(=O)NCc3ccco3)c(C)o2)cc1`, the IC50 is 7.45 µM (inactive).

Turning to `Cc1cc(C(=O)COC(=O)c2ccccc2O)c(C)n1Cc1cccs1`, the IC50 is 8.67 µM (inactive).

With `C=CCn1c(C)cc(C2=NN=C(NCC)SC2)c1C`, the IC50 was 6.85 µM (inactive).

Regarding `Cc1ccc(NC(=O)O/N=C/c2c(C)nn(C(C)(C)C)c2C)cc1Cl`, the IC50 was 10.1 µM (inactive).

As to `Cc1ccc(NC(=O)c2cc3ccccc3oc2=O)cc1S(=O)(=O)N(C)C`, the IC50 is > 20 µM (inactive).

As to `Cc1nn(C(C)(C)C)c(C)c1/C=N/OC(=O)Nc1ccc(Cl)cc1`, the IC50 was 20.1 µM (inactive).

For `CC(C)(C)c1ccc(C(=O)Nc2ccc(CC(=O)O)cc2)o1`, the IC50 is > 20 µM (inactive).

With `Cc1cc(C2=NNC(=NC3CC3)SC2)c(C)n1-c1ccccc1F`, the IC50 is 6.31 µM (inactive).

As for `CCN=C1NN=C(c2cc(C)n(Cc3ccco3)c2C)CS1`, the IC50 is 10.2 µM (inactive).

Regarding `CC(C)(C)c1ccc(-c2noc(CCC(N)=O)n2)cc1`, the IC50 was > 20 µM (inactive).

The values above are taken from PubChem BioAssay AID652064 (Molecular Libraries Program, Specialized Chemistry Center, …, 2013).
